From patent US20240293558A1, “KRAS INHIBITOR CONJUGATES” (Erasca, Inc., priority 2021, published 2024)

Legend:
KRAS (WT) = molecular target: T1, KRAS (WT) (Homo sapiens, UniProt P01116); experiment: In-vitro RAS-RAF binding assay (RRB), HTRF/FRET; format: biochemical; details: Table 2, average of multiple runs of each compound; read-out: Inhibition of RAS-RAF Binding (in-vitro) KRAS (WT) IC50
T1 construct: Biotinylated KRAS protein amino acids 1-169 (produced at Erasca); made in house
Outline: (§1)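 Compounds preincubated with terbium-labelled biotinylated KRAS (aa 1-169, 30 nM) before 60 min SOS1-catalysed exchange to GTPgS. Binding of the d2-labelled cRAF RBD (30 nM) is read as FRET at equilibrium in duplicate. Buffer: 50 mM HEPES pH 7.5, 100 mM NaCl, 1 mM MgCl2, 1 mM DTT.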

[1] = molecular target: T2, KRas G12D fused to HiBiT peptide (Homo sapiens, UniProt P01116, G12D); experiment: ASPC-1 HiBit assay to determine G12D degradation; format: cell-based; details: AsPC-1 HiBiT cells, 24-hour incubation; read-out: ASPC-1 HiBit DC50 (C)
T2 construct: endogenous in cells; host or cells: AsPC-1 HiBiT knock-in single clone (Cas9 RNP + ssODN)
Experimental: Compounds presented herein induce degradation of the KRas G12D (KRasG12D) upon treatment of engineered cancer cell line.
The degradation of the KRasG12D in cellular environment was measured using engineered homozygous KRasG12D AsPC-1 cell line in which KRas G12D was fused to luminescent HiBiT peptide at the N-terminal. The small (1.3 kDa) HiBiT peptide complements with high affinity to a larger (18 kDa) subunit evolved from NanoLuc (termed LgBiT). The resulting complex (i.e., reconstituted luciferase enzyme) generates bright luminescence that translates to high sensitivity (1 amol), broad dynamic range (four orders of magnitude), and rapid kinetics for real time quantitation.
To generate HiBit KRasG12D knock-in cell line, sgRNA (SEQ. ID NO: 1) and ssODN (SEQ. ID NO: 2) were designed and synthesized at GenScript.
RNP complex was generated by mixing of 100 pmol of Cas9 protein to PCR tubes containing 300 pmol sgRNA incubating the resultant complex at room temperature for 20 min. […] ssODN was added to RNP complex slowly and RNP-ssODN complex was incubated at room temperature for 10 min. RNP-ssODN complex was mixed with […] of AsPC-1 cells (1×10^6 cells total) and electroporated using Nucleofactor (Program CM-150). Cells were then incubated at ambient temperature for 5 min and transferred to a six-well plate containing 2 ml growth medium.
To select pools with the highest luminescence signal, 10^4 cells of parental AsPC-1 and transfected pools were plated in solid white 384-well tissue culture plates. 24 hours after seeding, HiBiT was detected using the Nano-Glo HiBiT Lytic Detection System (Promega) following manufacturer's instructions. Briefly, […] of Nano-Glo HiBiT Lytic Detection Reagent was added directly to the cells and mixed by inversion before recording luminescence on an Envision (Perkin-Elmer) with 0.5 s integration time.
Single clones were isolated from stable pool by limited dilution method and presence of HiBiT knock-in was verified by TA cloning and subsequent sequencing. Additionally, western blotting analysis was conducted to confirm selection of single clones with high luminescence signal.
For DC50S measurements, AsPC-1 HiBiT single clone cells were grown in RPMI 1640 medium (Invitrogen 22400-089) supplemented with 10% fetal bovine serum. Cells were seeded in 384-well tissue culture plates at a density of 7,000 cells/well and allowed to attach for 24 hours.
Test compounds were distributed directly into assay plate with the adjustment for DMSO concentration using Tecan HP D300e. For most of the experiments, the final concentration of compounds starts from 10 μM, 3-fold dilution dose response and 10 doses. […] DMSO final concentration is 1%. Each concentration of exemplary compound was tested as singleton. The negative control wells were cells with DMSO only, and the positive control wells were cells with […] inhibitor.
Following 24-hour incubation with the compounds plate and Nano-Glo® HiBiT Lytic reagents were equilibrated to room temperature. 20 μL of HiBiT Lytic reagent were added to each well. The assay plate was incubated on digital microplate shaker (350 rpm) for 20 min followed by centrifugation at 500 g for 1 min. Luminescence was recorded using Envision (Perkin-Elmer) using aperture 384-L1 with 0.1 s integration time.
HiBiT signal are used to calculate the % degradation at given compound concentration using the following formula:
% Degradation=(1−(Sample HiBiT signal−Ave Min signal)/(Ave Max signal−Ave Min signal))*100%
For DC50 calculation, the data with the hook effect were removed first and DC50S was reported using a 4-parameter fit of dose response curve using GraphPad in those cases where maximum % degradation was >50% and Minimal % degradation was <50%. The decrease in DC50 reflects that the exemplary compound led to a higher level of degradation of KRasG12D than another exemplary compound at specific timepoint of treatment of cancer cell line. […]

KRAS G12D = KRAS G12D (Homo sapiens, UniProt P01116, G12D); experiment: In-vitro RAS-RAF binding assay (RRB), HTRF/FRET; format: biochemical; set-up: Biotinylated KRAS protein amino acids 1-169 (produced at Erasca); made in house; details: Table 2, average of multiple runs of each compound; read-out: Inhibition of RAS-RAF Binding (in-vitro) KRAS (G12D) IC50
Outline: as §1

T2 sequence (P01116 1-188 isoform P01116-2 G12D): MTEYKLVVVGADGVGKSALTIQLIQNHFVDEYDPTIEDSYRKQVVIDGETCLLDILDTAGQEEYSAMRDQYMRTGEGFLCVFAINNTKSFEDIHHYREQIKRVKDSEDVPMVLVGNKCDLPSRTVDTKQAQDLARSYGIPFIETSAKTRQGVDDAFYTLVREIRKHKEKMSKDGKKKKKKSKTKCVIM
Sequence of KRAS G12D (P01116 1-169 isoform P01116-2 G12D): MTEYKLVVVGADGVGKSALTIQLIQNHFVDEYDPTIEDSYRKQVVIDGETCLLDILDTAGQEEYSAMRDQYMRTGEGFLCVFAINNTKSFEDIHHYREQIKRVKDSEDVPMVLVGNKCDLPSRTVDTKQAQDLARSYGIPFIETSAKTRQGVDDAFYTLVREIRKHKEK
T1 sequence (P01116 1-169 isoform P01116-2): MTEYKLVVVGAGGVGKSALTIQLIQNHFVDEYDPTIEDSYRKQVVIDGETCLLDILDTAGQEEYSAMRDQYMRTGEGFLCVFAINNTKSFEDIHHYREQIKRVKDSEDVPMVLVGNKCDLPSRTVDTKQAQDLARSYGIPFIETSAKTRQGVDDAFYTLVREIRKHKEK

| Compound | IC50 (KRAS (WT)) | DC50 [1] | IC50 (KRAS G12D) |
| --- | --- | --- | --- |
| C#Cc1c(F)ccc2cc(O)cc(-c3ncc4c(N5CC6CCC(C5)N6)nc(OCCN5CCC6(CC5)CN(c5cc([C@H](C(=O)N7C[C@H](O)C[C@H]7C(=O)N[C@@H](C)c7ccc(-c8c(F)cccc8F)cc7)C(C)C)on5)C6)nc4c3F)c12 [Example 16, (2S,4R)-1-[(2R)-2-[3-[7-[2-[4-(3,8-diazabicyclo[3.2.1]octan-3-yl)-7-(8-ethynyl-7-fluoro-3-hydroxy-1-naphthyl)-8-fluoro-pyrido[4,3-d]pyrimidin-2-yl]oxyethyl]-2,7-diazaspiro[3.5]nonan-2-yl]isoxazol-5-yl]-3-methyl-butanoyl]-N-[(1S)-1-[4-(2,6-difluorophenyl)phenyl]ethyl]-4-hydroxy-pyrrolidine-2-carboxamide] | 940 nM | 69.7 nM | 9.79 nM |
| C[C@H](NC(=O)[C@@H]1C[C@@H](O)CN1C(=O)[C@@H](NC(=O)CCOCCCN1CCCC1COc1nc(N2CC3CCC(C2)N3)c2cc(Cl)c(-c3ccc(F)c4sc(N)c(C#N)c34)c(F)c2n1)C(C)(C)C)c1ccc(-c2c(F)cccc2F)cc1 (stereo partly drawn) [Example 19, (2S,4R)-1-((2S)-2-(3-(3-((2S)-2-((((7R)-7-(2-amino-3-cyano-7-fluorobenzo[b]thiophen-4-yl)-4-(3,8-diazabicyclo[3.2.1]octan-3-yl)-6-chloro-8-fluoroquinazolin-2-yl)oxy)methyl)pyrrolidin-1-yl)propoxy)propanamido)-3,3-dimethylbutanoyl)-N—((S)-1-(2′,6′-difluoro-[1,1′-biphenyl]-4-yl)ethyl)-4-hydroxypyrrolidine-2-carboxamide] | 77.7 nM | 63.2 nM | 7.67 nM |
| CC(C)[C@@H](C(=O)N1C[C@H](O)C[C@H]1C(=O)N[C@@H](C)c1ccc(-c2c(F)cccc2F)cc1)c1cc(OCC2(C)CCN(CCOc3nc(N4CC5CCC(C4)N5)c4cc(C(F)(F)F)c(-c5ccc(F)c6sc(N)c(C#N)c56)c(F)c4n3)CC2)no1 [Example 74, (2S,4R)-1-((2R)-2-(3-((1-(2-((7-(2-amino-3-cyano-7-fluorobenzo[b]thiophen-4-yl)-4-(3,8-diazabicyclo[3.2.1]octan-3-yl)-8-fluoro-6-(trifluoromethyl)quinazolin-2-yl)oxy)ethyl)-4-methylpiperidin-4-yl)methoxy)isoxazol-5-yl)-3-methylbutanoyl)-N-((S)-1-(2′,6′-difluoro-[1,1′-biphenyl]-4-yl)ethyl)-4-hydroxypyrrolidine-2-carboxamide] | 962 nM | 185 nM | 18.1 nM |
| C#Cc1c(F)ccc2cc(O)cc(-c3ncc4c(N5CC6CCC(C5)N6)nc(OCCN5CCC6(C5)CN(c5cc([C@H](C(=O)N7C[C@H](O)C[C@H]7C(=O)N[C@@H](C)c7ccc(-c8c(F)cccc8F)cc7)C(C)C)on5)C6)nc4c3F)c12 [Example 101, (2S,4R)-1-((2R)-2-(3-(6-(2-((4-(3,8-diazabicyclo[3.2.1]octan-3-yl)-7-(8-ethynyl-7-fluoro-3-hydroxynaphthalen-1-yl)-8-fluoropyrido[4,3-d]pyrimidin-2-yl)oxy)ethyl)-2,6-diazaspiro[3.4]octan-2-yl)isoxazol-5-yl)-3-methylbutanoyl)-N—((S)-1-(2′,6′-difluoro-[1,1′-biphenyl]-4-yl)ethyl)-4-hydroxypyrrolidine-2-carboxamide] | 1790 nM | 707 nM | 13 nM |
| C[C@H](NC(=O)[C@@H]1C[C@@H](O)CN1C(=O)[C@@H](NC(=O)CCOCCCN1CCC[C@H]1COc1nc(N2CC3CCC(C2)N3)c2cc(C(F)(F)F)c(-c3ccc(F)c4sc(N)c(C#N)c34)c(F)c2n1)C(C)(C)C)c1ccc(-c2c(F)ccc(F)c2F)cc1 [Example 93, (2S,4R)-1-((2S)-2-(3-(3-((2S)-2-((((7S)-7-(2-amino-3-cyano-7-fluorobenzo [b]thiophen-4-yl)-4-(3,8-diazabicyclo [3.2.1]octan-3-yl)-8-fluoro-6-(trifluoromethyl)quinazolin-2-yl)oxy)methyl)pyrrolidin-1-yl)propoxy)propanamido)-3,3-dimethylbutanoyl)-4-hydroxy-N—((S)-1-(2′,3′,6′-trifluoro-[1,1′-biphenyl]-4-yl)ethyl)pyrrolidine-2-carboxamide] | 54 nM | 34 nM | 9.1 nM |

More lines, now with the values ahead:

| IC50 (KRAS (WT)) | DC50 [1] | IC50 (KRAS G12D) | Compound |
| --- | --- | --- | --- |
| 65 nM | 43 nM | 8.5 nM | C[C@H](NC(=O)[C@@H]1C[C@@H](O)CN1C(=O)[C@@H](NC(=O)CCOCCCN1CCC[C@H]1COc1nc(N2CC3CCC(C2)N3)c2cc(C(F)(F)F)c(-c3ccc(F)c4sc(N)c(C#N)c34)c(F)c2n1)C(C)(C)C)c1ccc(-c2ccccc2Cl)cc1 [Example 95, (2S,4R)-1-((2S)-2-(3-(3-((2S)-2-((((7S)-7-(2-amino-3-cyano-7-fluorobenzo [b]thiophen-4-yl)-4-(3,8-diazabicyclo [3.2.1]octan-3-yl)-8-fluoro-6-(trifluoromethyl)quinazolin-2-yl)oxy)methyl)pyrrolidin-1-yl)propoxy)propanamido)-3,3-dimethylbutanoyl)-N—((S)-1-(2′-chloro-[1,1′-biphenyl]-4-yl)ethyl)-4-hydroxypyrrolidine-2-carboxamide] |
| 2070 nM | 197 nM | 14 nM | C#Cc1c(F)ccc2cc(O)cc(-c3ncc4c(N5CC6CCC(C5)N6)nc(OCCN5CCC(Oc6cc([C@H](C(=O)N7C[C@H](O)C[C@H]7C(=O)N[C@@H](C)c7ccc(-c8c(F)cccc8F)cc7)C(C)C)on6)CC5)nc4c3F)c12 [Example 100, (2S,4R)-1-((2R)-2-(3-((1-(2-((4-(3,8-diazabicyclo[3.2.1]octan-3-yl)-7-(8-ethynyl-7-fluoro-3-hydroxynaphthalen-1-yl)-8-fluoropyrido[4,3-d]pyrimidin-2-yl)oxy)ethyl)piperidin-4-yl)oxy)isoxazol-5-yl)-3-methylbutanoyl)-N—((S)-1-(2′,6′-difluoro-[1,1′-biphenyl]-4-yl)ethyl)-4-hydroxypyrrolidine-2-carboxamide] |
| > 10000 nM | 1280 nM | 19.3 nM | CC(C)[C@@H](C(=O)N1C[C@H](O)C[C@H]1C(=O)N[C@@H](C)c1ccc(-c2c(F)cc(F)cc2F)cc1)c1cc(N2CC3(CCN(CCOc4nc(N5CC6CCC(C5)N6)c5cc(Cl)c(-c6ccc(F)c7sc(N)c(C#N)c67)c(F)c5n4)CC3)C2)no1 [Example 68, (2S,4R)-1-((2R)-2-(3-(7-(2-((7-(2-amino-3-cyano-7-fluorobenzo[b]thiophen-4-yl)-4-(3,8-diazabicyclo[3.2.1]octan-3-yl)-6-chloro-8-fluoroquinazolin-2-yl)oxy)ethyl)-2,7-diazaspiro[3.5]nonan-2-yl)isoxazol-5-yl)-3-methylbutanoyl)-4-hydroxy-N-((S)-1-(2′,4′,6′-trifluoro-[1,1′-biphenyl]-4-yl)ethyl)pyrrolidine-2-carboxamide] |
